In PubChem BioAssay AID330 (DTP/NCI, 2004):
“And” between values parts separate entries of the source, which are not always exact repeats. Equal entries are not always repeated. Toxic doses and inconclusive results are not listed. How the source made its calls: active means survival T/C of 150% or more; inactive means T/C below 125% in these data. Peptide text beside a SMILES is read from it. * marks the point of attachment. X13 = CC(C)CC(NN)C(=O)*

Test system: P388 leukemia ip, CD2F1 mice, survival T/C
Experiment: NCI In Vivo Anticancer Drug Screen. Data for tumor model P388 Leukemia (intraperitoneal) in CD2F1 (CDF1) mice
Conditions: endpoint: median survival time, higher = longer survival
Method in brief: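 Mice carrying the transplanted tumor received test compound or vehicle. Survival was recorded in each group, and the value is the treated-group measurement divided by that of the vehicle-treated control group.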

[1] = dose: 50.0 mg/kg/injection, schedule: Q01DX005 (ip), vehicle: Klucel (hydroxypropylcellulose) (HPC)
[2] = dose: 100.0 mg/kg/injection, schedule: Q01DX005 (ip), vehicle: Klucel (hydroxypropylcellulose) (HPC)
[3] = dose: 200.0 mg/kg/injection, schedule: Q01DX005 (ip), vehicle: Klucel (hydroxypropylcellulose) (HPC)
[4] = dose: 6.25 mg/kg/injection, schedule: Q01DX009 (ip), vehicle: saline with Tween-80
[5] = dose: 12.5 mg/kg/injection, schedule: Q01DX009 (ip), vehicle: saline with Tween-80
[6] = dose: 25.0 mg/kg/injection, schedule: Q01DX009 (ip), vehicle: saline with Tween-80
[7] = dose: 12.5 mg/kg/injection, schedule: Q01DX009 (ip), vehicle: saline
[8] = dose: 25.0 mg/kg/injection, schedule: Q01DX009 (ip), vehicle: saline
[9] = dose: 60.0 mg/kg/injection, schedule: Q01DX005 (ip), vehicle: saline
[10] = dose: 120.0 mg/kg/injection, schedule: Q01DX005 (ip), vehicle: saline
[11] = dose: 100.0 mg/kg/injection, schedule: Q01DX009 (ip), vehicle: saline with Tween-80
[12] = dose: 200.0 mg/kg/injection, schedule: Q01DX009 (ip), vehicle: saline with Tween-80
[13] = dose: 60.0 mg/kg/injection, schedule: Q01DX005 (ip), vehicle: saline with Tween-80
[14] = dose: 120.0 mg/kg/injection, schedule: Q01DX005 (ip), vehicle: saline with Tween-80
[15] = dose: 240.0 mg/kg/injection, schedule: Q01DX005 (ip), vehicle: saline with Tween-80
[16] = dose: 50.0 mg/kg/injection, schedule: Q01DX009 (ip), vehicle: saline with Tween-80

Measured: T/C

CN=C(N)N/N=C(\C)c1ccc2sc3ccccc3c2c1
inactive: dose: 25.0 mg/kg/injection, schedule: Q04DX002 (ip), vehicle: saline with Tween-80 104 % of control | dose: 50.0 mg/kg/injection, schedule: Q04DX002 (ip), vehicle: saline with Tween-80 106 % of control | dose: 100.0 mg/kg/injection, schedule: Q04DX002 (ip), vehicle: saline with Tween-80 107 % of control

C1=C[N-]c2c3c(ccc2=C1)=CC=C[N-]3.O=S(=O)(O)O.[Zn+2]
inactive: dose: 3.12 mg/kg/injection, schedule: Q04DX002 (ip), vehicle: Klucel (hydroxypropylcellulose) (HPC) 108 % of control | dose: 6.25 mg/kg/injection, schedule: Q04DX002 (ip), vehicle: Klucel (hydroxypropylcellulose) (HPC) 100 % of control | dose: 12.5 mg/kg/injection, schedule: Q04DX002 (ip), vehicle: Klucel (hydroxypropylcellulose) (HPC) 109 % of control | dose: 25.0 mg/kg/injection, schedule: Q04DX002 (ip), vehicle: Klucel (hydroxypropylcellulose) (HPC) 111 % of control

CCOC(=O)C(C(=O)OCC)=C1c2c(ccc(OC)c2OC)C=C2c3cc4c(cc3CCN21)OCO4
inactive: dose: 0.63 mg/kg/injection, schedule: Q01DX009 (ip), vehicle: water 97 % of control | dose: 1.25 mg/kg/injection, schedule: Q01DX009 (ip), vehicle: water 100 % of control | dose: 2.5 mg/kg/injection, schedule: Q01DX009 (ip), vehicle: water 106 % of control | dose: 5.0 mg/kg/injection, schedule: Q01DX009 (ip), vehicle: water 117 % of control | dose: 10.0 mg/kg/injection, schedule: Q01DX009 (ip), vehicle: water 124 % of control

COc1cc(NCCCCCN=C(N)NC#N)c2ncccc2c1
inactive: [1] 99 % of control | [2] 98 % of control | [3] 92 % of control

Clc1ccc2nc(CBr)cnc2c1
inactive: [4] 104 % of control | [5] 104 % of control | [6] 100 % of control

CC(C)CC(NN)C(=O)NC(CCCN=C(N)N)C(=O)NC(CCCN=C(N)N)C(=O)NC(C)C(=O)NC(CO)C(=O)NC(C(=O)NC(C)C(=O)O)C(C)C (stereo not drawn) (X13-RRASVA-OH; configuration not given here)
inactive: dose: 4.5 mg/kg/injection, schedule: Q01DX009 (ip), vehicle: Klucel (hydroxypropylcellulose) (HPC) 101 % of control | dose: 9.0 mg/kg/injection, schedule: Q01DX009 (ip), vehicle: Klucel (hydroxypropylcellulose) (HPC) 94 % of control | dose: 18.0 mg/kg/injection, schedule: Q01DX009 (ip), vehicle: Klucel (hydroxypropylcellulose) (HPC) 98 % of control | dose: 36.0 mg/kg/injection, schedule: Q01DX009 (ip), vehicle: Klucel (hydroxypropylcellulose) (HPC) 96 % of control

Nc1ccc(N=C2C=CC(=O)C=C2)c(N)c1
inactive: [7] 102 % of control and 90 % of control | [8] 103 % of control and 112 % of control | dose: 50.0 mg/kg/injection, schedule: Q01DX009 (ip), vehicle: saline 105 % of control | dose: 100.0 mg/kg/injection, schedule: Q01DX009 (ip), vehicle: saline 112 % of control

Cc1oc2ccccc2c(=O)c1CN1CCN(c2ccccn2)CC1
inactive: [9] 101 % of control | [10] 101 % of control

CCOC(=O)C(Cc1ccccc1)NC(=O)N(CCCl)CCCl (stereo not drawn)
inactive: dose: 66.0 mg/kg/injection, schedule: Q04DX003 (ip), vehicle: saline with Tween-80 109 % of control | [11] 109 % of control | dose: 150.0 mg/kg/injection, schedule: Q04DX003 (ip), vehicle: saline with Tween-80 113 % of control | [12] 122 % of control

CC1CCC2C(C)(C)C3CC12CC1OC13C (stereo not drawn)
inactive: [13] 100 % of control | [14] 91 % of control | [15] 96 % of control

COc1cccc2c1C(=O)c1c(O)c3c(c(O)c1C2=O)C[C@@](O)(C(C)O)C[C@@H]3OC1CC(N2CCOCC2)C(O)C(C)O1 (stereo partly drawn)
inactive: dose: 25.0 micrograms/kg/injection, schedule: Q04DX003 (ip), vehicle: water 101 % of control | dose: 50.0 micrograms/kg/injection, schedule: Q04DX003 (ip), vehicle: water 97 % of control | dose: 100.0 micrograms/kg/injection, schedule: Q04DX003 (ip), vehicle: water 100 % of control and 118 % of control

CC(=O)Nc1ccc(O)c(O)c1
inactive: [16] 116 % of control and 119 % of control | [11] 120 % of control | [12] 119 % of control

CCC1(c2cccc(C=O)c2)CCCCN(C)C1 (stereo not drawn)
inactive: dose: 12.5 mg/kg/injection, schedule: Q01DX005 (ip), vehicle: saline 99 % of control | dose: 25.0 mg/kg/injection, schedule: Q01DX005 (ip), vehicle: saline 97 % of control | dose: 50.0 mg/kg/injection, schedule: Q01DX005 (ip), vehicle: saline 97 % of control

CC1OC(OC2C(O[C@H]3CC[C@@]4(C)C(=CC[C@H]5[C@@H]6C[C@@H]7O[C@]8(CC[C@H](C)CN8)[C@@H](C)[C@@H]7[C@@]6(C)CC[C@@H]54)C3)OC(CO)C(O)C2OC2OC(CO)C(O)C(O)C2O)C(O)C(O)C1O (stereo partly drawn)
inactive: [4] 90 % of control | [5] 86 % of control | [6] 90 % of control

C[N+]1([O-])CC[N+](C)([O-])CC1 (stereo not drawn)
inactive: [9] 103 % of control | [10] 96 % of control | dose: 240.0 mg/kg/injection, schedule: Q01DX005 (ip), vehicle: saline 100 % of control

COC(=O)c1nnn(-c2ccc(Cl)cc2Cl)c1N
inactive: [13] 103 % of control | [14] 103 % of control | [15] 122 % of control

CCc1cccc(C)c1NC(=O)CCC(=O)OC
inactive: [13] 102 % of control | [14] 97 % of control | [15] 96 % of control

O=C1C=CC(=O)C(C2OC(=O)C(Cl)=C2Cl)=C1 (stereo not drawn)
inactive: dose: 50.0 mg/kg/injection, schedule: Q01DX005 (ip), vehicle: saline with Tween-80 110 % of control | dose: 100.0 mg/kg/injection, schedule: Q01DX005 (ip), vehicle: saline with Tween-80 104 % of control

Nc1ccc(S(=O)(=O)Nc2ccc3oc(=O)[nH]c3c2)cc1
inactive: dose: 50.0 mg/kg/injection, schedule: Q04DX002 (ip), vehicle: Klucel (hydroxypropylcellulose) (HPC) 101 % of control | dose: 100.0 mg/kg/injection, schedule: Q04DX002 (ip), vehicle: Klucel (hydroxypropylcellulose) (HPC) 104 % of control | dose: 200.0 mg/kg/injection, schedule: Q04DX002 (ip), vehicle: Klucel (hydroxypropylcellulose) (HPC) 104 % of control

CCCCCCC1N=C(N)N=C(N)N1c1cccc(Cl)c1 (stereo not drawn)
inactive: dose: 12.5 mg/kg/injection, schedule: Q01DX005 (ip), vehicle: Klucel (hydroxypropylcellulose) (HPC) 118 % of control | dose: 25.0 mg/kg/injection, schedule: Q01DX005 (ip), vehicle: Klucel (hydroxypropylcellulose) (HPC) 114 % of control

C=CCOc1ccccc1/C=N/[N+](C)(C)C
inactive: [7] 100 % of control | [8] 110 % of control

NC(N)=N/N=C/c1ccc(Cl)c(Cl)c1
inactive: [5] 100 % of control | [6] 95 % of control | [16] 86 % of control

CCCn1c(C)nc2ncn(-c3ccccc3)c2c1=O
inactive: [1] 101 % of control | [2] 102 % of control | [3] 101 % of control

COc1ccc(C(c2cc3c(cc2O)OCO3)N2CCN(C(c3cc4c(cc3O)OCO4)c3ccc(OC)cc3OC)CC2)c(OC)c1 (stereo not drawn)
inactive: dose: 60.0 mg/kg/injection, schedule: Q01DX005 (ip), vehicle: Klucel (hydroxypropylcellulose) (HPC) 88 % of control | dose: 120.0 mg/kg/injection, schedule: Q01DX005 (ip), vehicle: Klucel (hydroxypropylcellulose) (HPC) 86 % of control
